pIC50: −log10 of the molar value. Like-named read-outs stand apart in the source and are kept apart here.

This assay concerns the target T1, human Kv4.3/KChIP2.2 potassium channel (Homo sapiens, UniProt Q9UK17).
T1 construct: expressed in transfected cells
T1 sequence (Q9UK17 1-655): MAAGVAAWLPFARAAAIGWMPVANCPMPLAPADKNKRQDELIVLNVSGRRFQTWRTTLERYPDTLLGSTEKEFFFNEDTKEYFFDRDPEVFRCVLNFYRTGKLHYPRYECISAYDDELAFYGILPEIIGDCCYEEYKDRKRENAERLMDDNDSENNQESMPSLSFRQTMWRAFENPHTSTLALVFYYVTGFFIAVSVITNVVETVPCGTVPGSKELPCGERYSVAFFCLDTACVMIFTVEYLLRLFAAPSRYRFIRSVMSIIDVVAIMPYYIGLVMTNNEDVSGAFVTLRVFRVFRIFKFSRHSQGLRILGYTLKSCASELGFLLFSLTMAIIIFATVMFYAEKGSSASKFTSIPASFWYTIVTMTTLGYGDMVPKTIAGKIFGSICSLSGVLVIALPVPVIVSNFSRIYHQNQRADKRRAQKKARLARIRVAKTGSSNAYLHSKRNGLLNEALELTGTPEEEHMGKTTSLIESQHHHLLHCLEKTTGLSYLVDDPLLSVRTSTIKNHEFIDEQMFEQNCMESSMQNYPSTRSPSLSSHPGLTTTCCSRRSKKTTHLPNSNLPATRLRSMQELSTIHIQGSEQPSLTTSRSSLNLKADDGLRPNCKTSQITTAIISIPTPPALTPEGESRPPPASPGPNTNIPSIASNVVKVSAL
T1 sequence (Q9NS61 1-270 partner): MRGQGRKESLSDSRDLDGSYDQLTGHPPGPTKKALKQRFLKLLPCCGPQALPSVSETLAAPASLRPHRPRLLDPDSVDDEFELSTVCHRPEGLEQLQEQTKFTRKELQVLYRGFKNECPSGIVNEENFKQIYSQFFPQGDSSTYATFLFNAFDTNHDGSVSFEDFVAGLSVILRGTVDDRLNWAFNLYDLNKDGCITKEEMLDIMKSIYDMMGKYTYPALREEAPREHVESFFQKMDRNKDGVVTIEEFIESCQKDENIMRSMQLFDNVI
Nature of the assay: Whole cell patch clamp, CHO-K1 cells stably expressing Kv4.3/KChIP2.2. The assay is classed as cell-based. To be noted: for IC50: read-out: IC50 (μM) Kv4.3; for pIC50: Table 12, read-out: Kv4.3 charge IC50; for remaining activity at 1 µM: CHO-K1. In short, it runs like this: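 Whole-cell patch clamp at 20-25 °C, bath pH 7.4 with 4 mM KCl, pipette 130 mM KCl/10 mM EGTA/5 mM Na2ATP. Compound at […] (≤0.1% DMSO), n=2; pulses from −100 mV to +40 mV for 300 ms at 0.1 Hz, P/n (n=5) leak-corrected, cells with 1–50 nA currents only.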

The mark [1] stands for this setting: Table 6, estimated from 2 μM, hill=1, ymax=100.
The mark [2] stands for this setting: read-out: Kv4.3 charge in %: remaining current measured after application of the compound and relative to the blank.
[3] abbreviates: read-out: Kv4.3 peak in %: remaining peak height measured after application of the compound and relative to the blank.

As for “5-chloro-benzofuran-2- carboxylic acid 2,4- dimethoxy- benzylamide [Compound 2]”, the pIC50 was 5.76. In addition, the IC50 under setting [1] was 1.75 µM. The IC50 (Table 9) came to 1.75 µM.

For `O=C(NCc1ccc(OC(F)(F)F)cc1)c1cc2cc(Cl)ccc2o1` [Compound 89, 5-chloro-benzofuran-2-carboxylic acid 4-trifluoromethoxy-benzylamide], the remaining activity at 1 µM was found to be 37% under setting [2] and 77% under setting [3].

Take “5-chloro-benzofuran-2- carboxylic acid [3- (10,11-dihydro- dibenzo[a,d]cyclohepten- 5-ylidene)-propyl]- methyl-amide [Compound 5]”: the pIC50 was 4.80. In addition, the IC50 under setting [1] is 16 µM.

Consider `C[C@@H](NC(=O)c1cc2cc(Cl)ccc2o1)c1ccc([N+](=O)[O-])cc1` [Compound 1, 5-chloro-benzofuran-2-carboxylic acid [(R)-1-(4-nitro-phenyl)-ethyl]-amide], for which the pIC50 was 5.68.

Take `Cc1c(C(=O)NCc2ccc(F)c(C(F)(F)F)c2)sc2ccc(Cl)cc12` [Compound 107, 5-chloro-3-methyl-benzo[b]thiophene-2-carboxylic acid 4-fluoro-3-trifluoromethyl-benzylamide]: the remaining activity at 1 µM runs as follows: under setting [2], 30%; under setting [3], 87%.

A word on the IC50: it is the concentration at which inhibition is half-maximal. By pIC50 is commonly meant the negative decadic logarithm of the IC50, by convention in mol/L.

The values are drawn from patent US20080039442A1, “Compounds With Kv4 Ion Channel Activity” (Devgen NV, priority 2004, published 2008).
